# Activity calls are given as the source filed them.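 How the source made its calls: active means compounds cutting yeast counts by over 60% at top dose, with positive span-based score; inactive means the rest.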
# Tested on: S. cerevisiae growth, flow cytometry event count, 7 d
# Experiment: yeast growth inhibition by event count, dose response, cytotoxicity control for yeast caloric restriction mimetic project, powder samples (AID 504926)
# Conditions: at 100 µM; active compounds read high
row,SMILES,event count decrease
1,CCN(CC)C(=O)CSc1nnc(-c2cccc(OC)c2)o1,-66% (inactive)
2,COc1cccc2nc3cc(C)c(C)cc3nc12,56% (inactive)
3,O=C(c1ccc2nccnc2c1)N1CCCCC1,-141% (inactive)
4,C[C@@]12C(=O)OC(=O)[C@]1(C)C1CCC2O1,88%
5,O=C(c1cccc2nccnc12)N1CCN(c2ccccc2F)CC1,55% (inactive)
6,O=C(O)c1ccc2nccnc2c1,47% (inactive)
7,O=C(Nc1ccc2nccnc2c1)NC1CCCCC1,8% (inactive)
8,O=C(O)c1cnc2ccccc2n1,7% (inactive)
9,COc1ccc2nc3ccccc3nc2c1N,-32% (inactive)
10,COc1ccc2nc3ccccc3nc2c1NC(=O)c1ccccc1Cl,43% (inactive)
11,CCc1nc(NC(C)(C)C)c2cnn(-c3ccccc3)c2n1,52% (inactive)
12,CN1CCN(C(=O)c2ccc3nccnc3c2)CC1,-332% (inactive)
13,CC(C)OC(=O)c1ccc2nc3ccccc3nc2c1,4% (inactive)
14,CN(C)C(=O)c1ccc2nccnc2c1,-100% (inactive)
15,c1ccc2[nH]c3cc4ncnc4cc3nc2c1,-129% (inactive)
16,Cc1ccc(-c2nn(C(C)(C)C)c3ncnc(N)c23)cc1,-42% (inactive)
17,COc1ccc2c(c1)c1nnc(SC)nc1n2C,-72% (inactive)
18,COc1ccc2nc3ccccc3[n+]([O-])c2c1,41% (inactive)
19,C#CCSc1ccc(-c2ccc([N+](=O)[O-])cc2)o1,21% (inactive)
20,O=C(Nc1ccccc1)c1ccc2nccnc2c1,-494% (inactive)
21,N#CCc1nn(-c2ccccc2)c2ncnc(N)c12,31% (inactive)
22,O=C(Nc1ccc2nc3ccccc3nc2c1)c1ccc(Br)cc1,68% (inactive)
23,Cn1c(O)c(C(=Nc2ccc(F)cc2)c2ccccc2Cl)c(=O)n(C)c1=O,-114% (inactive)
24,c1ccc2nc3ccccc3nc2c1,41% (inactive)
25,O=C(c1ccc2nccnc2c1)N1CCN(c2ccccc2)CC1,-299% (inactive)

row,SMILES,event count decrease
1,CCCCCNC(=O)C(=O)C1C(=O)Nc2ccccc21 (stereo not drawn),66%
2,COc1ccc2cc(C3CC(c4ccco4)=NN3S(=O)(=O)c3ccccc3)c(Cl)nc2c1 (stereo not drawn),26% (inactive)
3,N#CC(c1nc2ccccc2nc1N1CCCC1)S(=O)(=O)c1ccccc1 (stereo not drawn),51% (inactive)
4,O=C(OCc1c(F)cccc1Cl)c1cnc2ccccc2n1,53% (inactive)
5,O=C(/C=C/c1ccccc1)NC(=S)NNC(=O)Cc1cccs1,57% (inactive)
6,CC(C)(C)Nc1ncnc2c1cnn2-c1ccccc1,18% (inactive)
7,CCN(CC)c1ccc2nc3ccc(N)cc3[n+](-c3ccccc3)c2c1,-22% (inactive)
8,O=C(O)c1cccc2nccnc12,-180% (inactive)
9,Cc1ccccc1NC(=O)c1cccc2nc3ccccc3nc12,-36% (inactive)
10,Cc1cc2nc3ccc(N(C)C)cc3nc2cc1N,-28% (inactive)
11,CC(C)(C)NC(=O)Nc1ccc2nccnc2c1,-56% (inactive)
12,C[n+]1c2ccccc2nc2ccc(NCCO)cc21,56% (inactive)
13,CCN(CC)C(=O)c1ccc2nc3ccccc3nc2c1,-99% (inactive)
14,CCN(CC)C(=O)c1cccc2nc3ccccc3nc12,-36% (inactive)
15,O=C(c1cccc2nc3ccccc3nc12)N1CCOCC1,-106% (inactive)
16,O=c1[nH]c(O)c(C=Nc2ccc(F)c(Cl)c2)c(=O)[nH]1,27% (inactive)
17,CNc1ccc2nc3ccccc3[n+](C)c2c1,45% (inactive)
18,Cn1c(=O)[nH]c2nncnc2c1=O,24% (inactive)
19,Cc1cc(C)cc(NC(=O)CN2CCN(c3ccccn3)CC2)c1,2% (inactive)
20,Oc1cccc2nc3ccccc3nc12,69%
21,O=C(Nc1ccc2nccnc2c1)c1cccc2nccnc12,95% (inactive)
22,CC(C)CSc1nnc2c3ccccc3n(C)c2n1,-5% (inactive)
23,O=C(Nc1ccc2nccnc2c1)N1CCOCC1,-21% (inactive)
24,O=C(Nc1cccc2nccnc12)c1ccccc1,16% (inactive)
25,CCn1c2ccccc2c2n[nH]c(=S)nc21,-35% (inactive)

row,SMILES,event count decrease
1,O=C(Nc1cccc(Cl)c1)Nc1ccc2nccnc2c1,-73% (inactive)
2,CC(C)(C)n1nc(-c2ccc(F)cc2)c2c(N)ncnc21,-56% (inactive)
3,O=C1c2c(O)ccc(O)c2C(=O)c2c(NCCNCCO)ccc(NCCNCCO)c21,-180% (inactive)
4,CC(=O)Nc1ccc2nc3ccccc3nc2c1,43% (inactive)
5,O=C(Nc1ccc2nccnc2c1)N1CCN(c2ccccc2)CC1,-25% (inactive)
6,O=C(NCc1ccccc1)c1ccc2nccnc2c1,80% (inactive)
7,CN(C)CCNc1ncnc2c1cnn2-c1ccc(Cl)cc1,19% (inactive)
8,CC(C)OC(=O)CSc1nnc(-c2ccc(Cl)cc2Cl)o1,41% (inactive)
9,FC(F)(F)c1nc2cc3nc4ccccc4[nH]c3cc2n1,-72% (inactive)
10,OCC[n+]1c2ccccc2nc2ccc(N3CCOCC3)cc21,19% (inactive)
11,Nc1ccc2nccnc2c1,-19% (inactive)
12,COc1ccc2nc3ccccc3nc2c1,35% (inactive)
13,C=CCSc1ccc(-c2ccc([N+](=O)[O-])cc2)o1,40% (inactive)
14,O=C(CN1CCN(c2ccccn2)CC1)Nc1ccccc1F,-51% (inactive)
15,O=C(/C=C/c1cccs1)NC(=S)NNC(=O)Cc1cccs1,81%
16,CSc1nnc(-c2ccc([N+](=O)[O-])cc2)o1,44% (inactive)
17,C=CCOn1c(=O)c(-c2cccs2)[n+]([O-])c2ccccc21,-43% (inactive)
18,Nc1cc2nc3ccccc3nc2cc1N,-45% (inactive)
19,Cc1cc(C)c2[nH]c3nc(SCC(=O)O)nnc3c2c1,16% (inactive)
20,[O-][n+]1c2ccccc2[n+]([O-])c2cc(O)ccc21,15% (inactive)
21,CCC(=Nc1ccccc1O)C1=C(O)CC(c2ccccc2)CC1=O (stereo not drawn),-11% (inactive)
22,CC(C)(C)n1nc(-c2ccc(Cl)cc2)c2c(N)ncnc21,-87% (inactive)
23,O=C(c1cccc2nccnc12)N1CCOc2ccccc21,-51% (inactive)

# — PubChem BioAssay AID504926 (NMMLSC, 2011)
